We go through 2 compounds from patent US10945980B2, “Treatment for myopia” (The University of Newcastle, priority 2016, dated 2021).

Holding throughout (assay type): in vivo, guinea pig (Cavia porcellus)
Experiment [1] deals with normal eye growth in guinea pigs. Description: Eye drops on normal growth and emmetropization (no lens wear). The conditions noted are these: eye drops twice daily 9-16 days of age. How it is done:
Two experimental protocols were employed (see Table 4). In Experiment 1, young guinea pigs wore a −6D lens on one eye from 5-12 days of age. They were randomly divided within each litter into two groups of 10 animals each, and received either a drop of L-Arginine (100 mM, 1.7%) in Saline (pH 7.4) or Saline alone (0.9%, pH 7.4) twice per day in the eye wearing the lens (Table 4). Drops were administered at the beginning of their light cycle and again approximately 6 hrs later in the middle of their day cycle. Lenses were removed during the drop administration which occurred under dim red light or in darkness. A single large drop was bathed on the cornea for 3 min in the lens-wearing eye in hand held animals. A clean lens was then reintroduced onto the eye. In Experiment 2, 14 guinea pigs were given eye drops in the same manner as in Experiment 1, but in both eyes and without any lens-wear, to determine the effect of the eye drops on normal eye growth. Animals received one drop of either 1.7% L-arginine (n=7) or atropine (Minims Atropine Sulphate 1%, Bausch & Lomb, preservative free, n=7) in one eye and saline (0.9%) in the other eye twice per day from 9-16 days of age.
In Experiment 1, at the end of the lens-wearing period, at 12 days of age just before the morning lights came on, both eyes were cyclopleged (1% Cyclopentolate—to paralyse the focussing muscles of the eye to a resting state) and 1.25 hours later, refractive error (RE) was measured. Animals were then anaesthetised with gaseous anaesthetic (1.5% isoflurane in oxygen) and eye length measures were taken in both eyes with high frequency ultrasound as described in Example 1. Biometry measures were also taken in the same manner before the lens wear period at 5 days of age. [No refractive measures were done at 5 days of age as cycloplegia could have interfered with the drug or lens response]. In Experiment 2, refractive error and eye length using ultrasound were measured in the same manner at 17 days of age, 24 hours after the previous drop was administered.
After cycloplegia was induced, refractive error was measured in each eye using an Autorefractor (Nidek AR-20, Japan). The spherical equivalent was calculated as the average of the sphere plus half the cylinder as is normal in clinical practice. All reported refractive errors are the spherical equivalent. Next, ocular length was measured using high frequency ultrasound (20 MHz) as previously described (McFadden et al, 2004). At least 20 traces were recorded for each eye and distances were averaged for at least 10 of these recordings. Peaks from the recordings were selected for the back of the cornea, the crystalline lens, and the vitreous chamber, and the layers at the back of the eye: the retina, choroid, and sclera. Ocular length was defined as the summed measurement from the front of the cornea to the back of the sclera.
Differences between the two eyes were analysed by a 2-tailed T-tests. The mean of calculated differences between the two eyes is referred to as relative myopia or relative ocular length and the difference in the change in ocular length in the treated compared to the untreated eye as relative growth.

Experiment [2] relates to recovery from myopia in guinea pigs. Description: Intravitreal nωPLA during recovery from −6D lens-induced myopia. The text has this:
That is, if up-regulation of nNOS was causal in the myopic recovery response, injections of nωPLA would be expected to inhibit the ability of the myopic eye recover from myopia.
(§1) In this second experiment, thirty four guinea pigs were raised and measured as described in Example 1. To induce myopia, animals wore a −6D lens on one eye from P6-P13, which was then removed for 3 days to initiate recovery from myopia, exactly as described in Example 1, Group 3. During the recovery period, animals received daily intravitreal injections (10 μl into the eye which had worn the lens) of either 6 mM nωPLA (PLA, n=9) or vehicle (0.9% isotonic saline, pH 7.4, n=11) on postnatal days P13, P14, and P15. To study the effect of the drugs on normal growth, a further seven animals were raised for the same period without lenses, and from P13 received a vehicle injection into the left eye and a 6 mM nωPLA injection into the right eye for 3 days. The dosage level of 6 mM refers to the concentration of nωPLA in the syringe. (Considerably smaller doses would be experienced at the level of the retina). In all animals, refractive error and axial parameters were measured in both eyes before and after the recovery period, at P13 and P16. In lens-wearing animals, untreated fellow eyes served as matched controls and data is expressed as the relative difference between the lens-wearing eye and the fellow eye.

Experiment [3] relates to normal growth of guinea pig eyes. The experiment can be described thus: Intravitreal nωPLA on normal growth (animals without lenses). The following applies: 6 mM nωPLA right eye vs vehicle left eye, 3 days from P13, no lenses. On the procedure: as §1

`CN1[C@@H]2CC[C@H]1C[C@@H](OC(=O)C(CO)c1ccccc1)C2` (some centres unmarked) [Atropine]: the “ocular length on average” value in experiment [1] (measured at 17 days, p=0.22 between groups) is given as 8.192 mm. In experiment [1] (measured at 17 days, p=0.32 between groups), the “mean refractive error, both eyes averaged” value was “+5.08”. Moreover, the “effect on refractive error (drug eye vs saline eye)” value in experiment [1] (no lens, 1.7% LA (p=0.69) or 1% Atropine (p=0.40)) is reported as “no difference in mean refractive error between the two eyes”. Moreover, the “difference between the two eyes in ocular length (drug eye vs saline control eye)” value in experiment [1] (LA p=0.39, ATR p=0.42) is recorded as “+20 μm”.

Take `CCCN=C(N)NCCC[C@H](N)C(=O)O` [nωPLA, N-w-propyl-L-arginine]: the “difference between the eyes in refractive error after the three day recovery period” value in experiment [2] (6 mM nωPLA (in syringe) 10 μl intravitreal daily P13-P15, measured P16) was −5.4 D. Besides, the “ocular length relative to the saline group after the recovery period” value in experiment [2] (6 mM nωPLA intravitreal daily P13-P15, measured P16) is “had longer eyes”. In experiment [3], the “elongation in animals without myopia” value is recorded as “no influence” and the “relative myopia in animals without myopia” value is recorded as “no influence”.
